Measurements taken from patent publication US20140088034A1, “NITRIC OXIDE/cGMP PATHWAY INHIBITION OF VLA-4 RELATED CELL ADHESION” (STC.UNM, priority 2011, published 2014).
pKd: −log10 of the molar value. Where two headings read alike, the source gives them in different places.

How the values were obtained:
VLA-4 [1] = biological target: T1, VLA-4 (Homo sapiens, UniProt P05556+P13612); experiment: Kinetic dissociation rate (koff) analysis of LDV-FITC probe on U937 cells with non-desensitizing FPR mutant; type: cell-based; details: U937 FPR ΔST, LDV-FITC 25 nM, LDV block 2 μM
T1 sequence (P13612 34-1032): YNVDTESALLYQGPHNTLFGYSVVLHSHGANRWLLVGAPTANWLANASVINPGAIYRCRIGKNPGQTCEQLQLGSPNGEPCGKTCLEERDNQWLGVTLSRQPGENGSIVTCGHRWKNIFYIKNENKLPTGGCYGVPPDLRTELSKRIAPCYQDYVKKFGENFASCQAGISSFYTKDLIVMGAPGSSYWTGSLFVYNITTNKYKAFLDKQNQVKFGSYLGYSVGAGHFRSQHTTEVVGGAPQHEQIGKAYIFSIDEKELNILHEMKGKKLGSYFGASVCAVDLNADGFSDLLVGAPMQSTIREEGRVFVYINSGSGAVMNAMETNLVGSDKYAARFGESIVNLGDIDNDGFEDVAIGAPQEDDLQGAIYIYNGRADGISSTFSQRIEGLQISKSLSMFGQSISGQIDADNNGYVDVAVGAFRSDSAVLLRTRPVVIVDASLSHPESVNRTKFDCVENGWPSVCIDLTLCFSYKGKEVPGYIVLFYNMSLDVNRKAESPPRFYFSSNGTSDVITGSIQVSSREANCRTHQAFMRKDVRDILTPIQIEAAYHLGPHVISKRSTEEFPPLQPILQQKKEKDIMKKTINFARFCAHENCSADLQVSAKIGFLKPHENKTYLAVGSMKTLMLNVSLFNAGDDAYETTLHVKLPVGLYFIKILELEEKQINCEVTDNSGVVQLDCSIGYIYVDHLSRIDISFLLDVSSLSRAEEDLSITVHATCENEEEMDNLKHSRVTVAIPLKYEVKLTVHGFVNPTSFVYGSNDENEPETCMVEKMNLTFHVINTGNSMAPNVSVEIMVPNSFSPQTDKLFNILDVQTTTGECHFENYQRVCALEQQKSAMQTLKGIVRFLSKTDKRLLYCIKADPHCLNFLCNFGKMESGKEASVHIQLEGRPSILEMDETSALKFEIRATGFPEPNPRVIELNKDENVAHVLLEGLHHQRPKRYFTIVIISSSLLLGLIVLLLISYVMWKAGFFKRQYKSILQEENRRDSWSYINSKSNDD
T1 sequence (P05556 21-798): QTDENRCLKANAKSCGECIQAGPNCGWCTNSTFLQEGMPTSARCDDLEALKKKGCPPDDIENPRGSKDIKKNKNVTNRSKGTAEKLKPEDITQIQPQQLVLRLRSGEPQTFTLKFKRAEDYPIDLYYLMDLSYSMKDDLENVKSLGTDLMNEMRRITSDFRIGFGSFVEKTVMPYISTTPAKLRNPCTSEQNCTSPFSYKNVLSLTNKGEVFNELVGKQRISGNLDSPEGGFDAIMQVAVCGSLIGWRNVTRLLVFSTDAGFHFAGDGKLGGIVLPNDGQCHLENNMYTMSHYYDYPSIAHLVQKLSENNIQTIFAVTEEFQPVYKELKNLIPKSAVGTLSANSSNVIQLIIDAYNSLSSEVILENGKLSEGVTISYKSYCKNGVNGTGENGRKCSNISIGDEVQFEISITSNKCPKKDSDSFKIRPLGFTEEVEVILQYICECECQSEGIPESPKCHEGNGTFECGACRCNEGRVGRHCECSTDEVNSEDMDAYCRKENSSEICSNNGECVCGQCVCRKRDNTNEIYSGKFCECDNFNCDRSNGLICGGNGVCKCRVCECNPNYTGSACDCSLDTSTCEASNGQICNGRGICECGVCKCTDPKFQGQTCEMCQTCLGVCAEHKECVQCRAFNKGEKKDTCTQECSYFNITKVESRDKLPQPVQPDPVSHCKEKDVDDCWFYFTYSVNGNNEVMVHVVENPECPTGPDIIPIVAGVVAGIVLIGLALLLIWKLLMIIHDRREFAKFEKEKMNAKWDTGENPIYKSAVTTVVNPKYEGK
Protocol: The experiment involved sequential addition of BAY 41-2272 (100 μM, guanylyl cyclase activator) or vehicle (control) at the 0 time point, and the fluorescent LDV-FITC probe (4 nM), and CXCL8/IL-8 (20 nM) (arrows). Excess unlabelled competitor LDV (1 μM) added at the end of the experiment to determine the non-specific binding of the probe. This experiment is analogous to the one shown in panel B. One representative experiment of two experiments is shown. Curves are means of two independent determinations calculated on a point-by-point basis (n=2). […] D, Kinetic analysis of binding and dissociation of LDV-FITC probe on U937 cells stably transfected with the non-desensitizing mutant of FPR. Cells were sequentially treated with the LDV-FITC probe (25 nM, near saturation), the Gαi-coupled receptor ligand (fMLFF, 100 nM), BAY 41-2272 (guanylyl cyclase activator, 50 μM) (arrows). At time points indicated by arrows, cells were treated with excess unlabeled LDV containing small molecule (2 μM), and the dissociation of the fluorescent molecule was followed. Dissociation rate constants (koff) were obtained by fitting dissociation curves to a single exponential decay equation (as described in the text). Experiments shown in the different panels were performed using different instruments, and therefore MCF values are not identical. E, Dissociation rate values, obtained in experiments analogous to panel B, summarized as a bar graph showing mean and SEM (n=4). Colors of the dissociation curves in panel D and bars on panel E are matching. The difference between koffs for “resting” and “fMLFF activated”, and between “fMLFF activated” and “fMLFF activated and treated with BAY 41-2272” is statistically significant (P=0.0006<0.05) as calculated by one-way analysis of variance (ANOVA) using GraphPad Prism software. […]
Next, the regions of the ligand-binding curves corresponding to the dissociation of the LDV-FITC probe were fitted to a single exponential decay equation. […] The affinity state induced by guanylyl cyclase activator was quantitatively similar to the resting state before activation. […]

VLA-4 [2] = biological target: T1, VLA-4; experiment: LDV-FITC equilibrium binding to VLA-4 (Kd and calculated receptor occupancy)
Description: Previously, we described and characterized in detail a model ligand an LDV-FITC containing small molecule ([14, 42-44], and references therein) for the detection of VLA-4 conformational regulation. This VLA-4 specific fluorescent probe was based on a highly specific α4β1-integrin inhibitor BIO1211, which contains the Leu-Asp-Val (LDV) ligand binding motif from the alternatively spliced connecting segment-1 (CS-1) peptide of cellular fibronectin [17, 45]. We established that integrin affinity changes, detected using this probe, vary in parallel with the natural VLA-4 ligand, human VCAM-1 [46]. For real-time detection of rapid integrin conformational changes, cells were treated with LDV-FITC (FIG. 2, first arrow), which was added after establishing a baseline for unstained cells, indicated on FIG. 2A as “autofluorescence”. Next, data were acquired for 2-3 minutes, and cells were activated with fMLFF (high affinity FPR ligand), CXCL12/SDF-1 (CXCR4 ligand), or CXCL8/IL-8 (CXCR2 ligand), for FPR, CXCR4, CXCR2 transfected cells, respectively (FIGS. 2A, B, and C). […] The change in occupancy was detected as a rapid increase in the mean channel fluorescence (MCF). This signal increase was sustained for the case of a non-desensitizing mutant of FRP (FIG. 2A), and reversible for the wild-type receptors (CXCR4, and CXCR2, FIG. 2B,C). Next, cells were treated with the nitric oxide donor, or vehicle (control). Acquisition was re-established, and data were acquired continuously for up to 720-840 s. […] In the absence of receptor desensitization, the effect of nitric oxide was more evident in cells transfected with a non-desensitizing mutant of FPR (vehicle, FIG. 2A). However, the effect of the nitric oxide donor was statistically significant for both wild-type GPCRs. […] To emphasize statistically the difference between control and experimental samples, standard errors of mean are indicated using error bars for every experimental point in FIG. 2B, 2C, 2D, 2E.
Kinetic analysis of the binding and dissociation of the LDV-FITC probe was described previously. […]

VLA-4 [3] = biological target: T1, VLA-4; details: cited from earlier work
[4] = 4 nM probe, calculated based on the one site binding equation

Substance: 4-((N′-2-methylphenyl)ureido)-phenylacetyl-L-leucyl-L-aspartyl-L-valyl-L-prolyl-L-alanyl-L-alanyl-L-lysine-FITC [LDV-FITC]
- dissociation rate constant koff of LDV-FITC, resting cells (VLA-4 [1]; at rest): ~0.04 ± 0.001 s⁻¹
- dissociation rate constant koff of LDV-FITC after cell activation by fMLFF (VLA-4 [1]; fMLFF 100 nM): ~0.018 ± 0.0001 s⁻¹
- receptor occupancy, high affinity state (VLA-4 [2]; [4]): 70-80%
- receptor occupancy, low affinity state (VLA-4 [2]; [4]): ~25%
- sites occupied before activation (VLA-4 [2]; 25 nM probe, low affinity state): ~70%
- pKd (VLA-4 [3]; physiologically activated VLA-4, high affinity state, read-out: Kd for physiologically activated VLA-4 (high affinity state)): 8.70 to 9.00
- pKd (VLA-4 [3]; resting VLA-4, low affinity state, read-out: Kd for binding to resting VLA-4 (low affinity state)): ~7.92
